Test results as given in patent publication US12281079B2, “Quinoline derivatives, processes for their preparation and uses thereof for the treatment of cancer” (Lead Discovery Center GmbH, priority 2019, dated 2025).

How the values were obtained:
[1] = molecular target: mitochondrial RNA polymerase (POLRMT) (Mus musculus, UniProt Q8BKF1); assay: Homogeneous TR-FRET assay for mitochondrial transcription activity; type: biochemical; details: homogeneous TR-FRET assay according to Example 4
How it was run: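 Read-out is TR-FRET (ex 340, em 665 nm) from two adjacent labelled DNA probes annealing to the 407 bp transcript after EDTA/700 mM NaCl stop. Reaction: murine POLRMT, TFAM, TFB2M and LSP plasmid template, compound 10 μM or serial dilution, 10 min rt preincubation, 500 μM each nucleotide, 2 h rt.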

[2] = tested on: mitochondrial transcription (7S RNA) in HeLa cells; assay: Quantitative real time-PCR assay of inhibition of mitochondrial transcription (7S RNA) in HeLa cells; type: cell-based; details: Homo sapiens, 4 h compound incubation, according to Example 5, read-out: cellular qPCR assay
How it was run: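 HeLa cells were exposed to compound dilution series or DMSO for 4 h, then RNA was extracted, normalized and reverse-transcribed. TaqMan qRT-PCR measured short-lived 7S RNA, with POLRMT as nuclear-transcription readout and TBP as housekeeping gene. Biological triplicates were analyzed by ΔΔCt and reported as Rq % (2−ΔΔCt).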

mitochondrial RNA polymerase (POLRMT), sequence (Q8BKF1 42-1207): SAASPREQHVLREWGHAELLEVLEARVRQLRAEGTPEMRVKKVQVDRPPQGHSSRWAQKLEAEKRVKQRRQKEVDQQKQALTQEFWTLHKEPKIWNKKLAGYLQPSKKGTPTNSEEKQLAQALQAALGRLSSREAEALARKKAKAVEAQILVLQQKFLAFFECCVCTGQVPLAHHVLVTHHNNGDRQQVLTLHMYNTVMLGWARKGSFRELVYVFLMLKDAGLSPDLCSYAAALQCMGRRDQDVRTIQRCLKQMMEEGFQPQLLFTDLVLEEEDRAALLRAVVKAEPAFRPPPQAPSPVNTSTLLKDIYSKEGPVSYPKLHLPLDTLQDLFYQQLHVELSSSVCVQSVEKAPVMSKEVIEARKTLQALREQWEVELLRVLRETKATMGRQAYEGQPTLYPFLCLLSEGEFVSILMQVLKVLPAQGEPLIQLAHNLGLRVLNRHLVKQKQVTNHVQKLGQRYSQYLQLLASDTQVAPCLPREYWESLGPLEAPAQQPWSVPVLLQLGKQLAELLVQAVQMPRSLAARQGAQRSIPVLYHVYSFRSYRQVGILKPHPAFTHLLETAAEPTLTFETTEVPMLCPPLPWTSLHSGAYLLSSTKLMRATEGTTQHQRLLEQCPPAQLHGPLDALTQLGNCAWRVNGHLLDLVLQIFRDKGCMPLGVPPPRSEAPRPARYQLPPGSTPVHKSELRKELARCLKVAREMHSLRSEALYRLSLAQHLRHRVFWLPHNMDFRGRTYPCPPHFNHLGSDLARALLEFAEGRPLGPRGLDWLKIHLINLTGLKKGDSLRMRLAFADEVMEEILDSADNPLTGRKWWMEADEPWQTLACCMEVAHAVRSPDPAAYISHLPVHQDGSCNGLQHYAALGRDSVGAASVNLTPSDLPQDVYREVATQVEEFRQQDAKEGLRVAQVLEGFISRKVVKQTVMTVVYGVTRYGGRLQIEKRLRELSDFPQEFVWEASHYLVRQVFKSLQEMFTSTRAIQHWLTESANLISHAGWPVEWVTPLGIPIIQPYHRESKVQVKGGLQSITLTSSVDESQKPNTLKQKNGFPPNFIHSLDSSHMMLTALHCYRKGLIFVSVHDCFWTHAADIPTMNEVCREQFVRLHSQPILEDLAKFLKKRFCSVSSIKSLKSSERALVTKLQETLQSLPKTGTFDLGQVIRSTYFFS

Compound | IC50 [1] [nM] | IC50 [2] [nM]
C[C@@H](Oc1ccc2c(-c3ccccc3Cl)cc(Cl)nc2c1)C(=O)N1CCNCC1 [Compound 104, (2R)-2-[[2-chloro-4-(2-chlorophenyl)-7-quinolyl]oxy]-1-piperazin-1-yl-propan-1-one] | 1000 to 10000 | 50 to 500
Cc1cc(-c2ccc(F)cc2Cl)c2ccc(O[C@H](C)C(=O)N3CCC[C@H](CC(=O)O)C3)cc2n1 [Compound 101, 2-[(3R)-1-[(2R)-2-[[4-(2-chloro-4-fluoro-phenyl)-2-methyl-7-quinolyl]oxy]propanoyl]-3-piperidyl]acetic acid] | 1000 to 10000 | 500 to 5000
C[C@@H](Oc1ccc2c(-c3c(Cl)cc(F)cc3Cl)ccnc2c1)C(=O)N1CCOCC1 [Compound 201, (2R)-2-[[4-(2,6-dichloro-4-fluoro-phenyl)-7-quinolyl]oxy]-1-morpholino-propan-1-one] | 100 to 1000 | 10 to 50
C[C@@H](Oc1ccc2c(-c3c(Cl)cc(F)cc3Cl)ccnc2c1)C(=O)N1CCC[C@@](C)(C(=O)O)C1 [Compound 188, (3R)-1-[(2R)-2-[[4-(2,6-dichloro-4-fluoro-phenyl)-7-quinolyl]oxy]propanoyl]-3-methyl-piperidine-3-carboxylic acid] | < 20 | 10 to 50
CCC(=O)N1CCN(C(=O)[C@@H](C)Oc2ccc3c(-c4ccc(F)cc4Cl)ccnc3c2)CC1 [Compound 28, (R)-2-((4-(2-chloro-4-fluorophenyl)quinolin-7-yl)oxy)-1-(4-propionylpiperazin-1-yl)propan-1-one] | 100 to 1000 | 10 to 50
Cc1cc(F)ccc1-c1cc(Cl)nc2cc(O[C@H](C)C(=O)N3CCC[C@H](CC(=O)O)C3)ccc12 [Compound 57, 2-[(3R)-1-[(2R)-2-[[2-chloro-4-(4-fluoro-2-methyl-phenyl)-7-quinolyl]oxy]propanoyl]-3-piperidyl]acetic acid] | 100 to 1000 | 50 to 500

Second part, the molecule after the results:

IC50 [1] [nM] | IC50 [2] [nM] | Compound
20 to 100 | 500 to 5000 | CCOC(=O)[C@H]1CCCN(C(=O)[C@@H](C)Oc2ccc3c(-c4ccc(F)cc4Cl)ccnc3c2)C1 [Compound 27, ethyl (3S)-1-[(2R)-2-[[4-(2-chloro-4-fluoro-phenyl)-7-quinolyl]oxy]propanoyl]piperidine-3-carboxylate]
100 to 1000 | < 10 | C[C@@H](Oc1ccc2c(-c3ccc(F)cc3Cl)ccnc2c1)C(=O)N1CCCC(C2(O)CC2)C1 (stereo partly drawn) [Compound 207, (2R)-2-[[4-(2-chloro-4-fluoro-phenyl)-7-quinolyl]oxy]-1-[3-(1-hydroxycyclopropyl)-1-piperidyl]propan-1-one]
< 20 | < 10 | Cc1cccc(C)c1-c1ccnc2cc(O[C@H](C)C(=O)N3CCCC(S(N)(=O)=O)C3)ccc12 (mixture of isomers) [Compound 119, 1-[rac-(2R)-2-[[4-(2,6-dimethylphenyl)-7-quinolyl]oxy]propanoyl]piperidine-3-sulfonamide]
100 to 1000 | 50 to 500 | Cc1sccc1-c1ccnc2cc(O[C@H](C)C(=O)N3CCC[C@H](CC(=O)O)C3)ccc12 [Compound 79, 2-[(3R)-1-[(2R)-2-[[4-(2-methyl-3-thienyl)-7-quinolyl]oxy]propanoyl]-3-piperidyl]acetic acid]
100 to 1000 | 50 to 500 | C[C@@H](Oc1ccc2c(-c3ccc(F)cc3Cl)ccnc2c1)C(=O)N1CC[C@@H](CC(=O)O)C1 [Compound 39, 2-[(3S)-1-[(2R)-2-[[4-(2-chloro-4-fluoro-phenyl)-7-quinolyl]oxy]propanoyl]pyrrolidin-3-yl]acetic acid]
20 to 100 | 50 to 500 | C[C@@H](Oc1ccc2c(-c3ccccc3Cl)ccnc2c1)C(=O)N1CCC[C@H](CC(=O)O)C1 [Compound 16, 2-[(3R)-1-[(2R)-2-[[4-(2-chlorophenyl)-7-quinolyl]oxy]propanoyl]-3-piperidyl]acetic acid]
